The record followed here is patent publication US20230063462A1, “SULFONIMIDAMIDE COMPOUNDS AND COMPOSITIONS FOR TREATING CONDITIONS ASSOCIATED WITH NLRP ACTIVITY” (NOVARTIS AG, priority 2019, published 2023).

Assay [1] has as its system THP-1 cells. In words: hTHP-1 assay: gramicidin-stimulated IL-1β detection in PMA-treated THP-1 cells. The assay is classed as cell-based, human. Conditions: Table B2, 10% FBS.
Assay [2] concerns THP-1 cells. Described as above. The assay is classed as cell-based, human. How it is done:
The following protocol is suitable for testing the activity of the compounds disclosed herein.
1. Experimental procedure • 1.1 Cell Culture • 1) Culture THP-1 cells in the complete RPMI-1640 medium with 10% FBS at 37° C., 5% CO2. • 2) Passage the cells every 3 days by inoculating 3×10^5 cells per ml. • 1.2 Compound Preparation • Prepare the 3-fold serial dilution of the compounds with DMSO in a 384-well LDV Microplate using TECAN EVO system to generate the compound source plate with 10 concentrations. […] HC: 100 μM CRID3 (MCC950)+5 μM gramicidin LC: 5 μM Gramicidin. • 1.5 IL-1β Detection • 1) Homogenize the 5× diluent #5 with a vortex and add 1 volume of stock solution in 4 volumes of distilled water. • 2) Thaw 20× stock solution of anti-IL1β-Cryptate-antibody and anti-IL1β XL-antibody. Dilute these two antibodies to 1× with detection buffer #3. • 3) Pre-mix the two ready-to-use antibody solutions just prior to use. • 4) Dispense 4 ul of pre-mixed Anti-IL1β antibodies working solution into all wells. • 5) Seal the plate and incubate overnight at 4° C. • 6) Read the cell plate using EnVison and plot Readout vs. the test compound concentration to calculate the IC50.
2. Data Analysis: • 1. IC50 of compounds can be calculated using the following formulas • Formula for IC50
% inhibition=100−100×[HCave-Readout/(HCave−LCave)] • 2. Fit the normalized data in a dose-response manner using XLfit, and calculate the compound concentration.

Setting [3] is: Table B1, 2% fetal bovine serum, class symbol, read-out: hTHP-1 IC50.
Where [4] appears, read: Table B1, 2% fetal bovine serum, numeric value, read-out: hTHP-1 IC50.
[5] abbreviates: Homo sapiens, THP-1, Table B1, 2% fetal bovine serum, class symbol, read-out: hTHP-1 IC50.

Where two headings read alike, the source gives them in different places. Some results are limits rather than exact numbers.

Regarding `NS(=O)(=NC(=O)Nc1c2c(nc(C3CC3)c1C1CC1)CCC2)c1nn(C2CC2)cc1F` (single isomer, unassigned) [Example 882, (R) or (S)-1-cyclopropyl-N′-((2,3-dicyclopropyl-6,7-dihydro-5H-cyclopenta[b]pyridin-4-yl)carbamoyl)-4-fluoro-1H-pyrazole-3-sulfonimidamide], the results for the IC50 in assay [1] (class symbol) and in assay [1] (numeric value) were 40 to 200 nM and 102 nM, respectively.
Consider `C[C@H](O)Cn1cc(F)c(S(N)(=O)=NC(=O)Nc2c3c(nc4c2CCC42CC2)CCC3)n1` (single isomer, unassigned) [Example 897, (S) or (R)-4-fluoro-1-((S)-2-hydroxypropyl)-N′-((1′,5′,6′,7′-tetrahydro-2′H-spiro [cyclopropane-1,3′-dicyclopenta[b,e]pyridin]-8′-yl)carbamoyl)-1H-pyrazole-3-sulfonimidamide], for which the IC50 was 200 to 1000 nM in assay [1] (class symbol) and 310 nM in assay [1] (numeric value).
For the compound `Cc1c(C(F)(F)F)nc2c(c1NC(=O)N=S(N)(=O)c1ccn(C3CC3)n1)CCC2` (single isomer, unassigned) [Example 891, (S) or (R)-1-cyclopropyl-N′-((3-methyl-2-(trifluoromethyl)-6,7-dihydro-5H-cyclopenta [b]pyridin-4-yl)carbamoyl)-1H-pyrazole-3-sulfonimidamide], the IC50 in assay [1] (class symbol) was 5000 to 30000 nM; in assay [1] (numeric value), 6510 nM.
Take `NS(=O)(=NC(=O)Nc1c2c(nc(C(F)(F)F)c1C1CC1)CCC2)c1ccn(C2CC2)n1` (stereo not shown) [Example 873, 1-Cyclopropyl-N′-((3-cyclopropyl-2-(trifluoromethyl)-6,7-dihydro-5H-cyclopenta[b]pyridin-4-yl)carbamoyl)-1H-pyrazole-3-sulfonimidamide]: the IC50 is 40 to 200 nM in assay [2] (Homo sapiens, THP-1, Table B2, 10% FBS, class symbol, read-out: hTHP-1 IC50 in 10% FBS) and 128 nM in assay [2] (Homo sapiens, THP-1, Table B2, 10% FBS, numeric value, read-out: hTHP-1 IC50 in 10% FBS).
For the compound `CC(C)(O)c1ncc(S(=O)(=NC(=O)Nc2c3c(cc4c2CCC4)CCC3)NC#N)s1` (single isomer, unassigned) [Example 27, (S) or (R)-N-cyano-N′-((1,2,3,5,6,7-hexahydro-s-indacen-4-yl)carbamoyl)-2-(2-hydroxypropan-2-yl)thiazole-5-sulfonimidamide], the 50% inhibitory concentration (IC50) in assay [2] (setting [3]) is 40 to 200 nM; in assay [2] (setting [4]) it was 92.8 nM.
Regarding `CC1CCc2c1nc1c(c2NC(=O)N=S(=O)(NC#N)c2cc(C(C)(C)O)cs2)CCC1` (single isomer, unassigned) [Example 18, (S,S) or (S,R)-N-cyano-4-(2-hydroxypropan-2-yl)-N′-(((S)-3-methyl-1,2,3,5,6,7-hexahydrodicyclopenta[b,e]pyridin-8-yl)carbamoyl)thiophene-2-sulfonimidamide], the IC50 in assay [2] (setting [3]) is 40 to 200 nM; in assay [2] (setting [4]), 80.3 nM.
With `CC(C)(O)c1ncc(S(=O)(=NC(=O)Nc2c3c(cc4c2CC4)CCC3)NC#N)s1` (single isomer, unassigned) [Example 25, (S) or (R)-N-cyano-2-(2-hydroxypropan-2-yl)-N′-((2,4,5,6-tetrahydro-1H-cyclobuta[f]inden-3-yl)carbamoyl)thiazole-5-sulfonimidamide], the concentration for half-maximal inhibition (IC50) is 8 to 40 nM in assay [2] (setting [5]) and 27.5 nM in assay [2] (setting [4]).
On to `CC(C)(O)c1csc(S(=O)(=NC(=O)Nc2c3c(cc4c2CC4)CCC3)NC#N)c1` (single isomer, unassigned) [Example 6, (R) or (S)-N-cyano-4-(2-hydroxypropan-2-yl)-N′-((2,4,5,6-tetrahydro-1H-cyclobuta[f]inden-3-yl)carbamoyl)thiophene-2-sulfonimidamide], for which the half-inhibitory concentration (IC50) in assay [2] (setting [3]) is 40 to 200 nM; in assay [2] (setting [4]), 71.7 nM.
Turning to `Cc1oc(S(=O)(=NC(=O)Nc2c(C(C)C)cc(F)cc2C(C)C)NC#N)cc1C(C)(C)O` (single isomer, unassigned) [Example 11, (R) or (S)-N-cyano-N′-((4-fluoro-2,6-diisopropylphenyl)carbamoyl)-4-(2-hydroxypropan-2-yl)-5-methylfuran-2-sulfonimidamide], the results for the IC50 in assay [2] (setting [3]) and in assay [2] (setting [4]) were 40 to 200 nM and 90.6 nM, respectively.
Regarding `CC(C)(O)c1ncc(S(=O)(=NC(=O)Nc2c3c(nc4c2CCC4(C)C)CCC3)NC#N)s1` (single isomer, unassigned) [Example 5, (R) or (S)-N-cyano-N′-((3,3-dimethyl-1,2,3,5,6,7-hexahydrodicyclopenta[b,e]pyridin-8-yl)carbamoyl)-2-(2-hydroxypropan-2-yl)thiazole-5-sulfonimidamide], the IC50 in assay [2] (setting [3]) is 200 to 1000 nM; in assay [2] (setting [4]), 236 nM.
Take `CC(C)c1cc(C#N)c(F)c(C(C)C)c1NC(=O)N=S(=O)(NC#N)c1cnc(C(C)(C)O)s1` (single isomer, unassigned) [Example 21, (R) or (S)-N-cyano-N′-((4-cyano-3-fluoro-2,6-diisopropylphenyl)carbamoyl)-2-(2-hydroxypropan-2-yl)thiazole-5-sulfonimidamide]: the values for the IC50 in assay [2] (setting [3]) and in assay [2] (setting [4]) were 40 to 200 nM and 50.8 nM, respectively.
As for `CC(C)c1cc(C#N)cc(C(C)C)c1NC(=O)N=S(=O)(NC#N)c1sc(C(C)(C)O)nc1CO` (single isomer, unassigned) [Example 22, (R) or (S)-N-cyano-N′-((4-cyano-2,6-diisopropylphenyl)carbamoyl)-4-(hydroxymethyl)-2-(2-hydroxypropan-2-yl)thiazole-5-sulfonimidamide], the IC50 in assay [2] (setting [5]) is 40 to 200 nM; in assay [2] (Homo sapiens, THP-1, Table B1, 2% fetal bovine serum, numeric value, read-out: hTHP-1 IC50), 79.2 nM.
Take `CC(C)c1cc(C#N)c(F)c(C(C)C)c1NC(=O)N=S(=O)(NC#N)c1cnc(C(C)(C)O)s1` (single isomer, unassigned) [Example 20, (S) or (R)-N-cyano-N′-((4-cyano-3-fluoro-2,6-diisopropylphenyl)carbamoyl)-2-(2-hydroxypropan-2-yl)thiazole-5-sulfonimidamide]: the concentration for half-maximal inhibition (IC50) is 1000 to 5000 nM in assay [2] (setting [3]) and 2750 nM in assay [2] (setting [4]).
Turning to `N#CNS(=O)(=NC(=O)Nc1c2c(cc3c1CCC3)CCC2)c1ccccc1` (single isomer, unassigned) [Example 33, (S) or (R)-N-cyano-N′-((1,2,3,5,6,7-hexahydro-s-indacen-4-yl)carbamoyl)benzenesulfonimidamide], the IC50 is 1000 to 5000 nM in assay [2] (setting [3]) and 1530 nM in assay [2] (setting [4]).
For `CC(C)(O)c1csc(S(=O)(=NC(=O)Nc2c3c(cc4c2CC4)CCC3)NC#N)c1` (single isomer, unassigned) [Example 7, (S) or (R)-N-cyano-4-(2-hydroxypropan-2-yl)-N′-((2,4,5,6-tetrahydro-1H-cyclobuta[f]inden-3-yl)carbamoyl)thiophene-2-sulfonimidamide] the same measures were below 8 nM and 6.8 nM.
`CC(C)(O)c1csc(S(=O)(=NC(=O)Nc2c3c(cc4c2CCC4)CCC3)NC#N)c1` (single isomer, unassigned) [Example 2, (R) or (S)-N-cyano-N′-((1,2,3,5,6,7-hexahydro-s-indacen-4-yl)carbamoyl)-4-(2-hydroxypropan-2-yl)thiophene-2-sulfonimidamide]: the values for the IC50 in assay [2] (setting [3]) and in assay [2] (setting [4]) were 8 to 40 nM and 14.6 nM, respectively.
For `CC(C)(O)c1csc(S(=O)(=NC(=O)Nc2c3c(cc4c2CCC4)CCC3)NC#N)c1` (single isomer, unassigned) [Example 1, (S) or (R)-N-cyano-N′-(1,2,3,5,6,7-hexahydro-s-indacen-4-ylcarbamoyl)-4-(2-hydroxypropan-2-yl)thiophene-2-sulfonimidamide] the same measures were 40 to 200 nM and 53.5 nM.
For the compound `CC(C)(O)c1ccc(CS(=O)(=NC(=O)Nc2c3c(cc4c2CCC4)CCC3)NC#N)cc1` (single isomer, unassigned) [Example 9, (R) or (S)-N-cyano-N′-((1,2,3,5,6,7-hexahydro-s-indacen-4-yl)carbamoyl)-1-(4-(2-hydroxypropan-2-yl)phenyl)methanesulfonimidamide], the half-inhibitory concentration (IC50) in assay [2] (setting [3]) was 40 to 200 nM; in assay [2] (setting [4]), 104 nM.
As for `CC(C)(O)c1cccc(S(=O)(=NC(=O)Nc2c3c(cc4c2CCC4)CCC3)NC#N)c1` (single isomer, unassigned) [Example 32, (R) or (S)-N-cyano-N′-((1,2,3,5,6,7-hexahydro-s-indacen-4-yl)carbamoyl)-3-(2-hydroxypropan-2-yl)benzenesulfonimidamide], the IC50 in assay [2] (setting [3]) was 40 to 200 nM; in assay [2] (setting [4]) it was 79.5 nM.
Turning to `CC(C)(O)c1ncc(S(=O)(=NC(=O)Nc2c3c(nc4c2CCC4(C)C)CCC3)NC#N)s1` (single isomer, unassigned) [Example 4, (S) or (R)-N-cyano-N′-((3,3-dimethyl-1,2,3,5,6,7-hexahydrodicyclopenta[b,e]pyridin-8-yl)carbamoyl)-2-(2-hydroxypropan-2-yl)thiazole-5-sulfonimidamide], the IC50 in assay [2] (setting [3]) was 40 to 200 nM; in assay [2] (setting [4]), 59.7 nM.
